Assays:
SARS-CoV-2 (HRB26M) = experiment: microbe, parasite or virus in culture; format: cell-based; conditions: Severe acute respiratory syndrome coronavirus 2, Vero C1008, 24 h, combination molar ratio 1:1, read-out: EC50 (50% inhibitory concentration)
[1] = Single-dose pharmacokinetics in BALB/c mice; format: in vivo; conditions: for half-life / AUC(0-t) / CL/F / Cmax / Tmax / Vd/F / MRT last / MRT inf: BALB/c, mouse, plasma; for MRT last: read-out: MRT0−t; for MRT inf: read-out: MRT0−∞
Description: (§1) Healthy SPF BALB/c mice (7-8 weeks) and SD rats (4-6 weeks) were used in a single-dose PK study. […] The blood was collected at 0, 0.083, 0.25, 0.5, 1, 2, 4, 8, 12 and 24 h and placed in a precooled polypropylene centrifuge tube containing 3.0 µl of 40% EDTAK2. Then, the whole blood was centrifuged at 7800 g/min for 10 min at 4°C. Plasma was collected and stored in a freezer at −80°C. Plasma drug concentration was analyzed using LC-MS/MS. Pharmacokinetic parameters were calculated using WinNonlin software (version 6.4), and a non-atrioventricular model was used for data fitting. The data were analyzed using Microsoft Excel 2016 and GraphPad Prism 7.0.

[2] = Cell viability (Cell Titer-Glo) in Vero E6 cells; format: cell-based; conditions: African green monkey
Description: Cell viability was determined using the Cell Titer-Glo kit (Promega, Madison, WI, USA) following the manufacturer’s instructions. Briefly, Vero E6 cells were seeded in 96-well plates with opaque walls. […] Cell Titer-Glo reagent was added to each well, and luminescence was measured using a GloMax 96 Microplate Luminometer (Promega, Madison, WI, USA).

[3] = Single-dose pharmacokinetics in SD rats; format: in vivo; conditions: for AUC(0-t) / Tmax / Vd/F / CL/F / Cmax / half-life / MRT last / MRT inf: Sprague-Dawley, rat, plasma, im; for MRT last: read-out: MRT0−t; for MRT inf: read-out: MRT0−∞
Description: as §1

[4] = im, BALB/c mice, alone (GC376 111 mg/kg; GS441524 67 mg/kg)
[5] = im, BALB/c mice, i.m., alone (GC376 111 mg/kg; GS441524 67 mg/kg)
[6] = im, BALB/c mice, i.m., combined (GC376 55.5 + GS441524 33.5 mg/kg)
[7] = alone (GC376 111 mg/kg; GS441524 67 mg/kg)
[8] = combined (GC376 55.5 + GS441524 33.5 mg/kg)
[9] = im, 33.5 mg/kg, BALB/c mice, i.m., combined (GC376 55.5 + GS441524 33.5 mg/kg)
[10] = 33.5 mg/kg, i.m., combined (GC376 55.5 + GS441524 33.5 mg/kg)

## CC(C)CC(NC(=O)OCc1ccccc1)C(=O)NC(CC1CCNC1=O)C(O)S(=O)(=O)O (centres unmarked) [GC376]
SARS-CoV-2 (HRB26M)
  EC50: 0.881 ± 0.109 µM
[1]; BALB/c mice, i.m., alone
  Cmax of GC376 relative to that of GS441524: approximately 1.2 fold
  clearance rate (CL/F) of GC376 relative to that of GS441524: approximately 3.1 fold
[1]; (GC376 55.5 + GS441524 33.5 mg/kg)
  half-life: 0.81 ± 0.22 h
[1]; [4]
  AUC(0-t): 55300 ± 11300 ng·h/mL
  CL/F: 33.1 mL/min/kg
  Cmax: 46700 ± 10700 ng/mL
  Tmax: 0.22 ± 0.07 h
  Vd/F: 2.87 ± 0.432 L/kg
  half-life: 1.12 ± 0.53 h
[1]; [5]
  MRT last: 1.05 ± 0.12 h
  MRT inf: 1.38 ± 0.59 h
[1]; [6]
  AUC(0-t): 27800 ± 4410 ng·h/mL
  CL/F: 33.9 mL/min/kg
  Cmax: 30040 ± 220 ng/mL
  Tmax: 0.25 h
  Vd/F: 2.34 ± 0.617 L/kg
  MRT last: 0.79 ± 0.09 h
  MRT inf: 0.88 ± 0.12 h
[2]
  CC50 at 24 h: > 250 µM
[3]
  AUC(0-t): 42400 ± 6440 ng·h/mL
  Tmax: 1.4 ± 0.49 h
  Vd/F: 5.17 ± 1.87 L/kg
[3]; [7]
  AUC(0-t): 92100 ± 9990 ng·h/mL
  CL/F: 20.1 mL/min/kg
  Cmax: 12600 ± 1900 ng/mL
  Tmax: 1.3 ± 0.6 h
  Vd/F: 6.75 ± 1.04 L/kg
  half-life: 3.87 ± 0.49 h
  MRT last: 5.83 ± 0.74 h
  MRT inf: 6.06 ± 0.64 h
[3]; [8]
  CL/F: 21.9 mL/min/kg
  Cmax: 11800 ± 1630 ng/mL
  half-life: 2.75 ± 0.91 h
  MRT last: 2.97 ± 0.41 h
  MRT inf: 3.32 ± 0.57 h
[3]; i.m., alone
  Cmax of GC376, fold lower than GS441524: approximately 2.5 fold
  clearance rate (CL/F) of GC376 relative to that of GS441524: approximately 2.9 fold

## N#C[C@@]1(c2ccc3c(N)ncnn23)O[C@H](CO)[C@@H](O)[C@H]1O [GS441524]
SARS-CoV-2 (HRB26M)
  EC50: 5.05 ± 2.12 µM
[1]; BALB/c mice, i.m., alone
  AUC0−t of GS441524 relative to that of GC376: approximately 1.9 fold
[1]; [9]
  AUC(0-t): 49000 ± 11700 ng·h/mL
  CL/F: 11.8 mL/min/kg
  Cmax: 16000 ± 2200 ng/mL
  Tmax: 0.55 ± 0.24 h
  Vd/F: 1.68 ± 0.282 L/kg
  half-life: 1.67 ± 0.24 h
  MRT last: 2.37 ± 0.73 h
  MRT inf: 2.48 ± 0.71 h
[1]; [4]
  AUC(0-t): 107000 ± 16800 ng·h/mL
  CL/F: 10.7 mL/min/kg
  Cmax: 39600 ± 2930 ng/mL
  Tmax: 0.8 ± 0.24 h
  Vd/F: 1.37 ± 0.129 L/kg
  half-life: 1.51 ± 0.16 h
[1]; [5]
  MRT last: 2.07 ± 0.42 h
  MRT inf: 2.15 ± 0.42 h
[2]
  CC50 at 24 h: > 250 µM
[3]; 33.5 mg/kg
  AUC(0-t): 88300 ± 26800 ng·h/mL
  Tmax: 3.4 ± 1.2 h
  Vd/F: 2.71 ± 1.25 L/kg
[3]; [10]
  CL/F: 6.6 mL/min/kg
  Cmax: 10500 ± 1850 ng/mL
  half-life: 5.13 ± 2.56 h
  MRT last: 6.03 ± 1.37 h
  MRT inf: 7.57 ± 2.93 h
[3]; [7]
  AUC(0-t): 183000 ± 64400 ng·h/mL
  CL/F: 7.05 mL/min/kg
  Cmax: 31000 ± 8400 ng/mL
  Tmax: 2 ± 1.1 h
  Vd/F: 2.25 ± 0.946 L/kg
  half-life: 3.8 ± 1.17 h
  MRT last: 4.5 ± 1.11 h
  MRT inf: 4.78 ± 1.49 h
[3]; i.m., alone
  AUC0−t of GS441524, fold higher than GC376: approximately 2.0 fold

Source: PMC7993387, “The preclinical inhibitor GS441524 in combination with GC376 efficaciously inhibited the proliferation of SARS-CoV-2 in the mouse respiratory tract” (Emerging Microbes & Infections, 2021)
